Laboratory results reported in PubChem BioAssay AID256 (DTP/NCI, 2004).
“And” between values parts separate entries of the source, which are not always exact repeats. Equal entries are not always repeated. Toxic doses and inconclusive results are not listed. Rule for the calls: active = survival T/C of 150% or more; inactive = T/C below 125% in these data.

Test system: CD2F1 mice, L1210 leukemia ip, survival T/C
Assay: NCI In Vivo Anticancer Drug Screen. Data for tumor model L1210 Leukemia (intraperitoneal) in CD2F1 (CDF1) mice
Conditions: higher = longer survival
Procedure, shortened: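 Ratio T/C, where T is the treated-group value and C the vehicle-dosed control value, from mice implanted with a transplantable tumor.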

[1] = endpoint: mean survival time, dose: 100.0 mg/kg/injection, schedule: Q04DX003 (ip), vehicle: saline with Tween-80
[2] = endpoint: mean survival time, dose: 200.0 mg/kg/injection, schedule: Q04DX003 (ip), vehicle: saline with Tween-80
[3] = endpoint: mean survival time, dose: 100.0 mg/kg/injection, schedule: Q01DX009 (ip), vehicle: saline with Tween-80
[4] = endpoint: mean survival time, dose: 200.0 mg/kg/injection, schedule: Q01DX009 (ip), vehicle: saline with Tween-80
[5] = endpoint: mean survival time, dose: 400.0 mg/kg/injection, schedule: Q01DX009 (ip), vehicle: saline with Tween-80
[6] = endpoint: mean survival time, dose: 100.0 mg/kg/injection, schedule: Q04DX002 (ip), vehicle: saline with Tween-80
[7] = endpoint: mean survival time, dose: 200.0 mg/kg/injection, schedule: Q04DX002 (ip), vehicle: saline with Tween-80
[8] = endpoint: mean survival time, dose: 400.0 mg/kg/injection, schedule: Q04DX002 (ip), vehicle: saline with Tween-80
[9] = endpoint: mean survival time, dose: 25.0 mg/kg/injection, schedule: Q01DX001 (ip), vehicle: saline
[10] = endpoint: mean survival time, dose: 50.0 mg/kg/injection, schedule: Q01DX001 (ip), vehicle: saline
[11] = endpoint: mean survival time, dose: 100.0 mg/kg/injection, schedule: Q01DX001 (ip), vehicle: saline
[12] = endpoint: mean survival time, dose: 400.0 mg/kg/injection, schedule: Q04DX003 (ip), vehicle: saline with Tween-80

Measured: T/C

CCOC(=O)/C(=C/[N-]c1ccccc1[N-]/C=C(\C(C)=O)C(=O)OCC)C(C)=O.[Pt+2]
inactive: endpoint: median survival time, dose: 10.0 mg/kg/injection, schedule: Q04DX003 (ip), vehicle: saline with Tween-80 98 % of control | endpoint: median survival time, dose: 20.0 mg/kg/injection, schedule: Q04DX003 (ip), vehicle: saline with Tween-80 96 % of control | endpoint: median survival time, dose: 40.0 mg/kg/injection, schedule: Q04DX003 (ip), vehicle: saline with Tween-80 89 % of control | endpoint: median survival time, dose: 50.0 mg/kg/injection, schedule: Q04DX003 (ip), vehicle: saline with Tween-80 96 % of control | endpoint: median survival time, dose: 80.0 mg/kg/injection, schedule: Q04DX003 (ip), vehicle: saline with Tween-80 101 % of control | endpoint: median survival time, dose: 100.0 mg/kg/injection, schedule: Q04DX003 (ip), vehicle: saline with Tween-80 97 % of control | endpoint: median survival time, dose: 200.0 mg/kg/injection, schedule: Q04DX003 (ip), vehicle: saline with Tween-80 101 % of control

CN(C)C1CC[N-]CC1.CN(C)C1CC[N-]CC1.[Cl][Pt+2][Cl]
inactive: endpoint: mean survival time, dose: 25.0 mg/kg/injection, schedule: Q04DX003 (ip), vehicle: saline 103 % of control | endpoint: mean survival time, dose: 50.0 mg/kg/injection, schedule: Q04DX003 (ip), vehicle: saline 109 % of control | endpoint: mean survival time, dose: 100.0 mg/kg/injection, schedule: Q04DX003 (ip), vehicle: saline 114 % of control

CC(C)(CO)CN1CCCCC1
inactive: [1] 101 % of control | [2] 93 % of control

COC(=O)/C=C(\C)C(=O)OC
inactive: [3] 100 % of control | [4] 94 % of control | [5] 96 % of control

COc1ccc(NC(=O)Oc2cccc3ccccc23)c(Cl)c1
inactive: endpoint: mean survival time, dose: 50.0 mg/kg/injection, schedule: Q01DX009 (ip), vehicle: Klucel (hydroxypropylcellulose) (HPC) 100 % of control | endpoint: mean survival time, dose: 100.0 mg/kg/injection, schedule: Q01DX009 (ip), vehicle: Klucel (hydroxypropylcellulose) (HPC) 100 % of control | endpoint: mean survival time, dose: 100.0 mg/kg/injection, schedule: Q04DX003 (ip), vehicle: Klucel (hydroxypropylcellulose) (HPC) 106 % of control | endpoint: mean survival time, dose: 200.0 mg/kg/injection, schedule: Q01DX009 (ip), vehicle: Klucel (hydroxypropylcellulose) (HPC) 100 % of control | endpoint: mean survival time, dose: 200.0 mg/kg/injection, schedule: Q04DX003 (ip), vehicle: Klucel (hydroxypropylcellulose) (HPC) 106 % of control | endpoint: mean survival time, dose: 400.0 mg/kg/injection, schedule: Q04DX003 (ip), vehicle: Klucel (hydroxypropylcellulose) (HPC) 102 % of control

O=C(OCC1OCOC(COC(=O)c2ccccc2)C(OC(=O)c2ccccc2)C1OC(=O)c1ccccc1)c1ccccc1 (configuration not stated)
inactive: [6] 100 % of control | [7] 88 % of control | [8] 88 % of control

Oc1cc(O)c(Cl)cc1Cl
inactive: [9] 103 % of control | [10] 95 % of control | [11] 95 % of control and 104 % of control

CCOC(=O)C1CC(C(=O)OCC)C(=O)C1=O (configuration not stated)
inactive: [3] 105 % of control | [4] 103 % of control | [5] 97 % of control

O=C(Nc1ccccc1C(=O)O)c1cc([N+](=O)[O-])cc([N+](=O)[O-])c1
inactive: endpoint: mean survival time, dose: 12.5 mg/kg/injection, schedule: Q01DX009 (ip), vehicle: saline with Tween-80 95 % of control and 97 % of control | endpoint: mean survival time, dose: 25.0 mg/kg/injection, schedule: Q01DX009 (ip), vehicle: saline with Tween-80 101 % of control and 103 % of control | endpoint: mean survival time, dose: 50.0 mg/kg/injection, schedule: Q01DX009 (ip), vehicle: saline with Tween-80 100 % of control and 101 % of control | [3] 95 % of control and 97 % of control | [4] 96 % of control

O=C(Oc1ccc(=O)[nH]n1)c1ccccc1
inactive: endpoint: mean survival time, dose: 12.5 mg/kg/injection, schedule: Q04DX002 (ip), vehicle: saline with Tween-80 98 % of control | endpoint: mean survival time, dose: 25.0 mg/kg/injection, schedule: Q04DX002 (ip), vehicle: saline with Tween-80 94 % of control | endpoint: mean survival time, dose: 50.0 mg/kg/injection, schedule: Q04DX002 (ip), vehicle: saline with Tween-80 90 % of control and 94 % of control | [7] 87 % of control

COC(=O)C(NC(=O)Cc1ccccc1)C(C)(C)S (configuration not stated)
inactive: [6] 102 % of control | [7] 102 % of control | [8] 102 % of control

CC1(C)CC23C4COC(=O)C2CCC1C3CC4=O (configuration not stated)
inactive: endpoint: mean survival time, dose: 3.12 mg/kg/injection, schedule: Q01DX009 (ip), vehicle: DMSO 95 % of control | endpoint: mean survival time, dose: 6.25 mg/kg/injection, schedule: Q01DX009 (ip), vehicle: DMSO 96 % of control and 98 % of control | endpoint: mean survival time, dose: 12.5 mg/kg/injection, schedule: Q01DX009 (ip), vehicle: DMSO 90 % of control and 94 % of control | endpoint: mean survival time, dose: 25.0 mg/kg/injection, schedule: Q01DX009 (ip), vehicle: DMSO 94 % of control and 98 % of control | endpoint: mean survival time, dose: 50.0 mg/kg/injection, schedule: Q01DX009 (ip), vehicle: DMSO 104 % of control | endpoint: mean survival time, dose: 100.0 mg/kg/injection, schedule: Q01DX009 (ip), vehicle: DMSO 93 % of control | endpoint: mean survival time, dose: 200.0 mg/kg/injection, schedule: Q01DX009 (ip), vehicle: DMSO 112 % of control

COC(=O)CNC(=O)C(Cc1ccc(OCc2ccccc2)cc1)NC(=O)OC(C)(C)C (configuration not stated)
inactive: [1] 91 % of control | [2] 91 % of control | [12] 95 % of control

CS(=O)(=O)OC1CC(n2ccc(=O)[nH]c2=O)OC1COC(c1ccccc1)(c1ccccc1)c1ccccc1 (configuration not stated)
inactive: endpoint: median survival time, dose: 12.5 mg/kg/injection, schedule: Q01DX005 (ip), vehicle: saline with Tween-80 98 % of control and 103 % of control | endpoint: median survival time, dose: 25.0 mg/kg/injection, schedule: Q01DX005 (ip), vehicle: saline with Tween-80 100 % of control and 96 % of control | endpoint: median survival time, dose: 50.0 mg/kg/injection, schedule: Q01DX005 (ip), vehicle: saline with Tween-80 108 % of control and 94 % of control | endpoint: median survival time, dose: 100.0 mg/kg/injection, schedule: Q01DX005 (ip), vehicle: saline with Tween-80 100 % of control and 94 % of control | endpoint: median survival time, dose: 200.0 mg/kg/injection, schedule: Q01DX005 (ip), vehicle: saline with Tween-80 98 % of control and 101 % of control

Oc1ccc(Br)cc1/C=N/c1nc(-c2ccccc2)cs1.Oc1ccc(Br)cc1/C=N/c1nc(-c2ccccc2)cs1.[Zn]
inactive: [9] 100 % of control | [10] 100 % of control | [11] 100 % of control

COc1cc(OC)c2c(O)c3c(c(-c4ccc5cc6c(c(O)c5c4O)C(=O)CC(C)(O)C6)c2c1)CC(C)OC3C (configuration not stated)
inactive: endpoint: mean survival time, dose: 0.5 mg/kg/injection, schedule: Q01DX009 (ip), vehicle: Klucel (hydroxypropylcellulose) (HPC) 103 % of control | endpoint: mean survival time, dose: 1.0 mg/kg/injection, schedule: Q01DX009 (ip), vehicle: Klucel (hydroxypropylcellulose) (HPC) 100 % of control | endpoint: mean survival time, dose: 2.0 mg/kg/injection, schedule: Q01DX009 (ip), vehicle: Klucel (hydroxypropylcellulose) (HPC) 103 % of control

CCOC(=O)/C(C#N)=C(\C)c1ccccc1
inactive: endpoint: mean survival time, dose: 37.5 mg/kg/injection, schedule: Q01DX009 (ip), vehicle: saline with Tween-80 95 % of control | endpoint: mean survival time, dose: 75.0 mg/kg/injection, schedule: Q01DX009 (ip), vehicle: saline with Tween-80 97 % of control

CC(=O)Nc1nnc(SCc2ccccc2)s1
inactive: [3] 100 % of control | [1] 92 % of control | [4] 96 % of control | [2] 89 % of control | [5] 100 % of control | [12] 89 % of control

CCCCCc1ccc(C#N)cc1
inactive: [10] 100 % of control | [11] 97 % of control | endpoint: mean survival time, dose: 200.0 mg/kg/injection, schedule: Q01DX001 (ip), vehicle: saline 89 % of control | endpoint: mean survival time, dose: 400.0 mg/kg/injection, schedule: Q01DX001 (ip), vehicle: saline 93 % of control

BrC1CC2CC1C1C=CCC21 (configuration not stated)
inactive: [3] 100 % of control | [4] 101 % of control | [5] 101 % of control

CCC(C)C(C(=O)O)C(=O)O (configuration not stated)
inactive: endpoint: mean survival time, dose: 75.0 mg/kg/injection, schedule: Q01DX001 (ip), vehicle: saline 100 % of control | endpoint: mean survival time, dose: 150.0 mg/kg/injection, schedule: Q01DX001 (ip), vehicle: saline 100 % of control | endpoint: mean survival time, dose: 300.0 mg/kg/injection, schedule: Q01DX001 (ip), vehicle: saline 102 % of control

CCCOC(=O)c1cncn1C(C)c1ccccc1 (configuration not stated)
inactive: [11] 102 % of control
